Read-outs that look alike come from different tables or passages of the source.

For experiment [1], the system named is HepG2 cells. The experiment is described as follows: In vitro cytotoxic activity, MTT assay. Format: cell-based, human. Particulars: 24 h treatment, read-out: IC50, compound concentration required to inhibit cell growth by 50%. Here is the method:
The obtained 1,8-naphthalimide–carborane conjugates were investigated for their in vitro antitumor activity by examining their cytotoxic effects using the MTT tetrazolium dye assay against the human cancer cell line HepG2 established from hepatocellular carcinoma. IC50 refers to the drug concentration (µM) required to inhibit cell growth by 50%.
The cytotoxic properties of the synthesized compounds were evaluated using the human hepatocellular carcinoma cell line HepG2 established from hepatocellular carcinoma. The HepG2 cell line was purchased from ECACC (Salisbury, UK). Cells were grown in EMEM medium (Corning®) supplemented with 10% heat-inactivated fetal bovine serum (FBS) (Corning®) and antibiotics (Corning®), at 37 °C in a 5% CO2 atmosphere. Upon reaching 80–90% confluency, cells were detached with the trypsin (Corning®) and transferred into 96-well microplates at a density of 12 × 10^3. After overnight incubation at 37 °C in a humidified atmosphere containing 5% CO2, the cells were treated for the next 24 h with compounds. The stock solution of each compound was prepared in DMSO at 10 mM. The cytotoxicity was evaluated by the MTT assay. […] Subsequently, the medium was aspirated and replaced with 3-(4,5-dimethylthiazol-2-yl)-2,5-diphenyltetrazolium bromide (MTT) dye solution (50 µL, 0.5 mg/mL). After 3 h incubation, the resulting MTT formazan crystals were dissolved in DMSO (100 µL). To ensure the complete dissolution of formazan, the plates were shaken on an orbital microplate shaker at 1000 rpm for 15 min (Thermoshaker NeoLab 7–0055, Bionovo, Legnica, Poland). The optical density of each well was then measured on a VICTOR Nivo multimode plate reader at a wavelength of 570 nm. Each experiment consisted of 6 replications of each concentration, and each experiment was repeated three times independently. The results were calculated as a percentage of control group viability. The IC50 values were determined using a non-linear regression from the plot of % viability against log dose of compounds by using GraphPad Prism 6.0 software (GraphPad, San Diego, CA, USA).

Experiment [2] has as its system calf thymus DNA (ct-DNA). As to the kind of experiment: Melting temperature (Tm) measurements of ct-DNA, thermal denaturation. Format: binding. Particulars: for ΔTm ct-DNA: r = [compound]/[ct-DNA] = 0.3, pH 7.0, 20 mM cacodylate buffer, Tm of ct-DNA alone 74 °C; for effect on thermal stability of ct-DNA (in words): thermal melting experiments. Here is the method: The melting temperature (Tm) of DNA is defined as the temperature at which 50% of the DNA is in form of single strands forming randomly coiled structures. DNA melting is measured by the absorbance of UV light (260 nm) by the DNA solution, where the amount of UV light absorbed is proportional to the fraction of non-bonded base pairs. The majority of DNA-binding small molecules known thus far stabilize duplex DNA against heat denaturation. A high, drug-induced increase in the Tm of DNA is generally viewed as an excellent criterion to select DNA ligands and is a common feature of several anticancer drugs such as intercalators (a significant increase in Tm = 3–8 °C is observed for strong intercalation) and alkylators. The reverse situation (destabilization of DNA to facilitate its denaturation) may be an attractive option to identify therapeutic agents acting on the DNA structure.
Our study conducted Tm measurement to estimate the impact of 1,8-naphthalimides bearing the carborane cluster on DNA stabilization (Table 1, Figures S249–S253, ESI).
The measurements were performed by adding aliquots of DMSO stock solution of the tested compounds to the buffer solution (pH 7.0, 20 mM, cacodylate buffer, DMSO content of the final solution = 0.24–0.36%). The Tm curves were collected at r = 0.3 (r = [compound]/[ct-DNA]) to assure the dominant binding mode. Thermal melting curves were determined by following the absorption change at 260 nm as a function of temperature by using a GBC Cintra10 UV–vis spectrometer (Dandenong, Australia) equipped with a GBC Thermocell Peltier Power Supply (Dandenong, Australia) using a 1 cm path length cell. The absorbance of the samples was monitored at 260 nm from 30 to 90 °C (95 °C for compounds 54–61) with a heating rate of 1 °C/min. Tm values are the midpoints or the transition curves determined from the maximum of the first derivative. The ΔTm values were calculated by subtracting the Tm of the free nucleic acid from the Tm of the sample. Every Tm value reported in this study was average at least three measurements. The error in Tm was 0.5 °C.

Experiment [3] deals with calf thymus DNA (ct-DNA). The experiment is described as follows: UV–vis absorption titration with ct-DNA, binding constant Kb. Particulars: 10 µM compound, ct-DNA 1.25–15 µM. The source says:
The interaction of 1,8-naphthalimides bearing carborane clusters with ct-DNA was also studied by UV–vis absorption titration to better understand the mode of interaction and binding strength. For compounds interacting with DNA by intercalation, bathochromic and hypochromic effects are observed in the absorption spectra. The spectral changes observed in the electronic absorption of 6–11, 16–19, 36–43, and 54–61 in the absence and presence of ct-DNA are illustrated in Figures S271–S296 (ESI). Progressive addition of ct-DNA at the concentration of 1.25–15 µM to a fixed amount of modified naphthalic anhydride or naphthalimide (10 µM concentration) decreased absorbance for almost all the tested modified conjugates, except conjugates 14, 15, and 22–27 for which changes in absorbance were not observed. […] Hypochromicity (10–56%) was also observed for all conjugates, with the highest value for compound 40.
To compare the DNA-binding strength of the tested conjugates, we calculated the binding constant Kb, as described in the Materials and Methods section. […] For conjugates 14, 15, and 22–27, the Kb value could not be determined due to the lack of noticeable changes in the UV spectra.
The measurements were performed by adding aliquots of DMSO stock solution of the tested compounds to the buffer solution (pH 7.4, 20 mM, 50 mM NaCl, Tris-HCl buffer, DMSO content of the final solutions = 0.40–0.61%) to the final concentration of 10 µM. The tested compounds were incubated 5 min, with increasing concentrations ranging from 0 to 15 µM of ct-DNA at 37 °C, then the UV–vis absorption spectra, between 310 and 500 nm (310–550 nm for compounds 36–43 and 54–61), were recorded using a GBC Cintra10 UV–vis spectrometer (Dandenong, Australia) equipped with a GBC Thermocell Peltier Power Supply (Dandenong, Australia) using a 1 cm path length cell. The binding constant was calculated according to the following equation [53]: A0/A−A0=εG/εH−G−εG +εG/εH−G−εG ×1/Kb[DNA] where Kb is the binding constant, A0 and A are the absorbance of the free tested compound, and the apparent one, εG and εH−G are their coefficient, respectively, and [DNA] is the concentration of [DNA] in the base pair. The slope to intercept ratio of the plot between A0/A − A0 versus 1/[DNA] yielded the binding constant.

Experiment [4] concerns HepG2 cells. The arrangement: method as in PMID 31776032. Particulars: read-out: IC50, compound concentration required to inhibit cell growth by 50%; cited from earlier work.
The test system of experiment [5] is calf thymus DNA (ct-DNA). Set-up: method as in PMID 33803403. Particulars: unmodified mitonafide and pinafide; cited from earlier work.
The target in the next experiment is T1, human topoisomerase IIα (Homo sapiens, UniProt P11388).
T1 construct: purchased Inspiralis (Norwich, UK)
As to the kind of experiment: Human topoisomerase IIα relaxation assay. Particulars: for IC50: supercoiled pBR322, concentration range 0.1–100 µM, read-out: IC50, compound concentration required to inhibit the activity of this enzyme by 50%. The class given is biochemical. How it is done:
Therefore, we subjected these compounds to further detailed analyses of inhibitory potential within the concentration range of 0.1–100 µM (Figure S301, ESI) to calculate IC50 values. IC50 refers to the compound concentration (µM) required to inhibit the activity of the topoisomerase enzyme by 50%.
The Human Topoisomerase II-alpha Relaxation Assay Kit was purchased from Inspiralis (Norwich, UK). The Topo IIα inhibition assay was performed as described by the manufacturer. […] Next, TopoIIα (1 U) was added, and the reaction mixture was incubated at 37 °C for an additional 45 min. The reaction was terminated by addition of the STEB buffer (40 % (w/v) sucrose, Tris-HCl (100 mM, pH 8), EDTA (1 mM), bromophenol blue (0.5 mg/mL)). The products were analyzed by electrophoresis using agarose gel (1%) in TAE buffer at 70 V for 2 h, followed by ethidium bromide staining. […] The percentage of Topo-II alpha activity inhibition was calculated by densitometric quantification (Quantity One software, Bio-Rad). The occurrence of a band representing supercoiled DNA on an agarose gel indicated the inhibition of enzyme activity.

The test system of experiment [6] is HepG2 cells. Set-up: method as in PMID 31776032. Particulars: cited from earlier work.

T1 sequence (P11388 whole entry): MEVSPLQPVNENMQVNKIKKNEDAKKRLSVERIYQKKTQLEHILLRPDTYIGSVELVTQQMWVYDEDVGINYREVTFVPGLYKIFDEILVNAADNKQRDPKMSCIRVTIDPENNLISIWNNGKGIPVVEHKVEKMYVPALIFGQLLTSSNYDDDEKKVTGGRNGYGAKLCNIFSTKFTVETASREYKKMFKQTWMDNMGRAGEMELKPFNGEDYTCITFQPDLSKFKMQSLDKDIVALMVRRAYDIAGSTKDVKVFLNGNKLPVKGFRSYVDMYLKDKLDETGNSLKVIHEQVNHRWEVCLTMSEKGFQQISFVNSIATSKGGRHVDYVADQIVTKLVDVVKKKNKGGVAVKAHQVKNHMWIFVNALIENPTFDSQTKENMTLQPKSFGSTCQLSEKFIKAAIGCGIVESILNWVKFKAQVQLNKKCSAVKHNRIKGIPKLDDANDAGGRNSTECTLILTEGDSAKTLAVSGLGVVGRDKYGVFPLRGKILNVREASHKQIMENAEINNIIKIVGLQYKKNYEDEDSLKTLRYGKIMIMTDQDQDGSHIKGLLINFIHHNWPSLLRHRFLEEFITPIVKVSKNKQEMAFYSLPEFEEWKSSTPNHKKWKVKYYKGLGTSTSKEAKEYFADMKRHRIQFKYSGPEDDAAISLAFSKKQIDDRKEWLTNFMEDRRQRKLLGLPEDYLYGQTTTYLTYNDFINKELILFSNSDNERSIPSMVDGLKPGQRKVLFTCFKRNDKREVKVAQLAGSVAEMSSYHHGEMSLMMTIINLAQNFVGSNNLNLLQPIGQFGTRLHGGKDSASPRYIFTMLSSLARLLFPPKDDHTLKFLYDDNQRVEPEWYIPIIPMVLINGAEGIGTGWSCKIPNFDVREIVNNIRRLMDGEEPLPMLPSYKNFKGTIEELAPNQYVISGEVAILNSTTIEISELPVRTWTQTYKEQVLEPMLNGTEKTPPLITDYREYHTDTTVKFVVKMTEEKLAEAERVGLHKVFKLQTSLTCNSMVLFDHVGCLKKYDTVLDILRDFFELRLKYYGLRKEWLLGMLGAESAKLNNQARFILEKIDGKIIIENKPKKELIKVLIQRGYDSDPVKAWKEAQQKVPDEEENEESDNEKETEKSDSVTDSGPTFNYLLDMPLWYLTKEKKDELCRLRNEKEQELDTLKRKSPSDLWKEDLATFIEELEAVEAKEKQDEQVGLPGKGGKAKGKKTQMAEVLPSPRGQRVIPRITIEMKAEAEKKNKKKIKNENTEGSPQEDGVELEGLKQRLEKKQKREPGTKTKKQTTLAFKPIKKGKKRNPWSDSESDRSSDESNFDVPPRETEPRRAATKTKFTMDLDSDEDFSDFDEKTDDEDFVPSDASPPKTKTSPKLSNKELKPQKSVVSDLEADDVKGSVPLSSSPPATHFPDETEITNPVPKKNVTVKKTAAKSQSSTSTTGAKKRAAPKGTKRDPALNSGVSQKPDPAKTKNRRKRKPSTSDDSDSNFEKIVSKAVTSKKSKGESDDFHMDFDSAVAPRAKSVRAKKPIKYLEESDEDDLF

As for “N-[2-(N-Pyrrolidinyl)ethyl]-4-{1-[3-(1,7-dicarba-closo-dodecaborane-1-yl)propyl]-1H-1,2,3-triazol-4-yl}methoxy-1,8-naphthalimide [Compound 19]”, the IC50 in the experiment with HepG2 cells [1] stood at 15 ± 0.57 µM. The “ΔTm ct-DNA” value with calf thymus DNA (ct-DNA) [2] is 0.67 °C. Also, in the experiment with calf thymus DNA (ct-DNA) [3], the bathochromic shift is 1–2 nm.

In the case of `O=C1c2cccc3cc([N+](=O)[O-])cc(c23)C(=O)N1CCN1CCCC1` [Pinafide, pinafide], in the experiment with HepG2 cells [4], the IC50 was 1.23 µM. Further, the “ΔTm ct-DNA” value in the experiment with calf thymus DNA (ct-DNA) [5] is 6.50 °C.

As for “N-[2-(Dimethylamino)ethyl]-4-[(2-(3-(1,7-dicarba-closo-dodecaborane-1-yl)propanamido)ethyl)amino]-1,8-naphthalimide [Compound 37]”, the IC50 in the experiment with HepG2 cells [1] is 10.5 ± 0.53 µM. The IC50 on human topoisomerase IIα is 7.49 µM. For the same molecule, in the experiment on calf thymus DNA (ct-DNA) [2], the “ΔTm ct-DNA” value came out at 2.00 °C and the “effect on thermal stability of ct-DNA (in words)” value is “better DNA stabilization”.

Turning to “N-[2-(N-Pyrrolidinyl)ethyl]-4-{1-[3-(1,2-dicarba-closo-dodecaborane-1-yl)propyl]-1H-1,2,3-triazol-4-yl}methoxy-1,8-naphthalimide [Compound 17]”, the IC50 with HepG2 cells [1] is 36.9 ± 3.72 µM. For the same molecule, in the experiment with calf thymus DNA (ct-DNA) [2], the “ΔTm ct-DNA” value came out at 0.67 °C. Besides, the bathochromic shift with calf thymus DNA (ct-DNA) [3] is recorded as 1–2 nm.

With “N-[2-(Dimethylamino)ethyl]-4-[(2-(3-(1,2-dicarba-closo-dodecaborane-1-yl)propanamido)ethyl)amino]-1,8-naphthalimide [Compound 36]”, the IC50 with HepG2 cells [1] is 6.03 ± 0.91 µM; on human topoisomerase IIα, 7.72 µM. Also, the “ΔTm ct-DNA” value in the experiment with calf thymus DNA (ct-DNA) [2] is 1.33 °C. For the same molecule, the “effect on thermal stability of ct-DNA (in words)” value in the experiment with calf thymus DNA (ct-DNA) [2] is listed as “better DNA stabilization”.

Take “4-{1-[3-(1,7-Dicarba-closo-dodecaborane-1-yl)propyl]-1H-1,2,3-triazol-4-yl}methoxy-1,8-naphthalic anhydride [Compound 15]”: the values for the IC50 with HepG2 cells [1] and on human topoisomerase IIα were 38.1 ± 2.85 µM and 61.6 µM, respectively. Moreover, the “fold less active than mitonafide (Topo IIα IC50)” value at human topoisomerase IIα was 12 fold. Moreover, the “ΔTm ct-DNA” value in the experiment on calf thymus DNA (ct-DNA) [2] amounted to 0.00 °C.

“N-[2-(N-Pyrrolidinyl)ethyl]-4-{1-[3-(1,7-dicarba-closo-dodecaborane-1-yl)propyl]-1H-1,2,3-triazol-4-yl}-1,8-naphthalimide [Compound 11]”: the IC50 in the experiment with HepG2 cells [1] is 14.6 ± 0.43 µM. Moreover, the “ΔTm ct-DNA” value in the experiment with calf thymus DNA (ct-DNA) [2] turned out to be 0.33 °C. Besides, the bathochromic shift with calf thymus DNA (ct-DNA) [3] is 1–2 nm.

For the molecule `CN(C)CCN1C(=O)c2cccc3cc([N+](=O)[O-])cc(c23)C1=O` [Mitonafide, mitonafide], the IC50 in the experiment with HepG2 cells [4] is less than 1 µM; at human topoisomerase IIα it was 5.13 µM. Further, the “ΔTm ct-DNA” value in the experiment with calf thymus DNA (ct-DNA) [5] was 5.17 °C. For the same molecule, in the experiment on HepG2 cells [6], the “8-oxo-dG level in cellular DNA” value is “Mitonafide—28.24 ± 0.18 per 10^6 dG [8]”.

The record behind these values is article PMC9101373, “Design of DNA Intercalators Based on 4-Carboranyl-1,8-Naphthalimides: Investigation of Their DNA-Binding Ability and Anticancer Activity” (International Journal of Molecular Sciences, 2022).
